Laboratory results reported in patent US9663528B2, “Substituted 1,2,3,4,6,8,12,12a-octahydro-1,4-methanodipyrido[1,2-a:1',2'-d]pyrazines and methods for treating viral infections” (priority 2012, dated 2017).
Where two headings read alike, the source gives them in different places.

Columns and labels:
[1] = molecular target: OCT2 (Homo sapiens (Human), UniProt O15244); assay: OCT2 inhibition assay (14C-TEA uptake, OCT2-transfected MDCKII cells); format: cell-based
Protocol: On assay day, cells were trypsinized and resuspended in Krebs-Henseleit Buffer (KHB), pH 7.4 at […]. Cells were preincubated for 15 min in assay plate before addition of test compound or substrate. Test compounds were serially diluted in DMSO and then spiked (2 μL) into in 0.4 mL KHB buffer containing wild-type or OCT2-transfected cells and incubated for 10 minutes. Assay was initiated with the addition of 0.1 mL of 100 μM ^14C-TEA in KHB buffer (20 μM final concentration after mixing). The concentration of TEA is based on the Km. After 10 minutes of incubation, the assay mixture was quenched with addition of 0.5 mL of ice-cold 1×PBS buffer. Samples were then centrifuged at 1000 rpm for 5 min and supernatants were removed. Wash steps were repeated four times with ice-cold PBS. Finally, the cell pellets were lysed with 0.2N NaOH and let sit at room temperature for at least 30 min to ensure complete lysis. Samples were then counted on liquid scintillation counter and dpm counts were used to perform the following calculations.

[2] = molecular target: PXR (Homo sapiens (Human), UniProt O75469); assay: Human PXR activation assay (luciferase reporter gene assay, DPX2 cells); format: cell-based; conditions: human
Sequence of PXR (O75469 whole entry): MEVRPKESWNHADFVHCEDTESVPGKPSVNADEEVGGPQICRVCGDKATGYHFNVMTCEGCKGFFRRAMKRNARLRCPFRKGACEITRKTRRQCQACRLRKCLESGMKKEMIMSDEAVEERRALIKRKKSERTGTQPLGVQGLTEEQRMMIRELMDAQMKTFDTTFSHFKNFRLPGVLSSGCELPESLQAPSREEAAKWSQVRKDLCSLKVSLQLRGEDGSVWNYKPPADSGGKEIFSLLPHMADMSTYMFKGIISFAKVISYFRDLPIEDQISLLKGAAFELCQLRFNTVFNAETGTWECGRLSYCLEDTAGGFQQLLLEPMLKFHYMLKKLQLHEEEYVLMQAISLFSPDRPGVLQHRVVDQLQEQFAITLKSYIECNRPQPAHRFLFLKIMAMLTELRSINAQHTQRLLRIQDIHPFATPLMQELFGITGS
Protocol: A stably transformed tumor cell line (DPX2) was plated on 96-well microtiter plates. DPX2 cells harbor the human PXR gene (NR112) and a luciferase reporter gene linked to two promoters identified in the human CYP3A4 gene, namely XREM and PXRE. […] The number of viable cells was determined and the reporter gene activity was assessed. Positive control: […]

[3] = in vitro; conditions: human
[4] = Pharmacokinetic analysis following intravenous administration to beagle dogs; format: in vivo; conditions: male, dog, 0.5 mg/kg; for MRT / clearance: beagle, in vivo, iv; for Vd: plasma, beagle dogs, IV infusion over 30 min, read-out: Vss
Protocol: Pharmacokinetic analysis was performed on various test compounds following intravenous or oral administration to beagle dogs.
For pharmacokinetic analysis of intravenously administered compounds, the test compounds were formulated in 5% Ethanol, 55% PEG 300, and 40% water at 0.1 mg/mL for IV infusion. For pharmacokinetic analysis of orally administered compounds, the test compounds were formulated as an aqueous suspension in 0.1% Tween 20, 0.5% HPMC LV 100 in Di Water at 1 mg/kg.
Each dosing group consisted of 3 male, non-naïve purebred beagle dogs. At dosing, the animals weighed between 10 to 13 kg. The animals were fasted overnight prior to dose administration and up to 4 hr after dosing. For studies of intravenous administration, the test article was administered to the animals by intravenous infusion over 30 min. The rate of infusion was adjusted according to the body weight of each animal to deliver a dose of 0.5 mg/kg. For studies of oral administration, the test article was administered according to the body weight of each animal to deliver a dose of 1 mg/kg.
For pharmacokinetic analysis of intravenously administered compounds, serial venous blood samples (approximately 1 mL each) were taken from each animal at 0, 0.250, 0.483, 0.583, 0.750, 1.00, 1.50, 2.00, 4.00, 8.00, 12.0, and 24.0 hours after dosing. The blood samples were collected into Vacutainer™ tubes containing EDTA-K2 as the anti-coagulant and were immediately placed on wet ice pending centrifugation for plasma. An LC/MS/MS method was used to measure the concentration of the test compound in plasma. An aliquot of 100 μL of each plasma sample was added to a clean 96 well plate, and 400 μL of cold acetonitrile/internal standard solution (ACN)/(ISTD) was added. After protein precipitation, an aliquot of 110 μL of the supernatant was transferred to a clean 96-well plate and diluted with 300 μL of water. An aliquot of 25 μL of the above solution was injected into a TSQ Quantum Ultra LC/MS/MS system utilizing a Hypersil Gold C18 HPLC column (50×3.0 mm, 5 μm; Thermo-Hypersil Part #25105-053030). An Agilent 1200 series binary pump (P/N G1312A Bin Pump) was used for elution and separation, and an HTS Pal autosampler (LEAP Technologies, Carrboro, N.C.) was used for sample injection. A TSQ Quantum Ultra triple quadrupole mass spectrometer was utilized in selective reaction monitoring mode (Thermo Finnigan, San Jose, Calif.). Liquid chromatography was performed using two mobile phases: mobile phase A contained 1% acetonitrile in 2.5 mM ammonium formate aqueous solution with pH of 3.0, and mobile phase B contained 90% acetonitrile in 10 mM ammonium formate with pH of 4.6. Non-compartmental pharmacokinetic analysis was performed on the plasma concentration-time data. The resulting data are shown in the first three columns of Table 4. In Table 4, CL refers to clearance, which characterizes the rate at which drug is removed from plasma. The lower the clearance of a drug is, the longer the elimination half-life is in the body. Vss refers to the steady state volume of distribution and indicates how well a drug is distributed into the tissues. The larger the Vss is, the longer the elimination half-life is in the body. MRT refers to mean residence time, which is a measure of the average time molecules exist in the body.

[5] = 15 μM, relative to maximum fold induction by 10 or 20 μM rifampicin, DPX2 cells, 24 hours, read-out: % Emax at 15 μM

Sequence of OCT2 (O15244 whole entry): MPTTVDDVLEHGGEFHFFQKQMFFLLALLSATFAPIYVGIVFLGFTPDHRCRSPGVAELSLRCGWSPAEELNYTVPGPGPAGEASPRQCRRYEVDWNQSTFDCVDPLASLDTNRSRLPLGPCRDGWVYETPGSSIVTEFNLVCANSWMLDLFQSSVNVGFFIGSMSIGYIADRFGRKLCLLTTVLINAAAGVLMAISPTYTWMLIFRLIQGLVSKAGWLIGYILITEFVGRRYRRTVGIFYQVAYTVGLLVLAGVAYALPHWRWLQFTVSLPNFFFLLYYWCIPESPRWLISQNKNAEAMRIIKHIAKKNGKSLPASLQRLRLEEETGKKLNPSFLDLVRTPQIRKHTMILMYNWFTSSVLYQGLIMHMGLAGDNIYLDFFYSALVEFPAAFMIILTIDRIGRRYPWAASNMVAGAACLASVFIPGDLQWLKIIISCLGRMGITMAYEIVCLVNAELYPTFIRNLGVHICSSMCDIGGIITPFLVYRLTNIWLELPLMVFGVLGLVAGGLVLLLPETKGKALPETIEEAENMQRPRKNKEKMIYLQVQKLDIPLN

SMILES	IC50 [1] [µM]	Emax at 24 h, 15 µM [2] [%]	CC50 at 5 days ([3]; CC50 nM in MT-4) [nM]	also measured
O=C(N[C@@H](c1ccc(F)cc1F)C(F)(F)F)c1cn2c(c(O)c1=O)C(=O)N1C(C2)O[C@H]2CC[C@@H]1C2 (stereo partly drawn) [Compound 36, (2S,5R)-N—((S)-1-(2,4-difluorophenyl)-2,2,2-trifluoroethyl)-8-hydroxy-7,9-dioxo-2,3,4,5,7,9,13,13a-octahydro-2,5-methanopyrido[1′,2′:4,5]pyrazino[2,1-b][1,3]oxazepine-10-carboxamide]	10	3	11400	–
O=C(NCc1ccc(F)cc1F)c1cn2c(c(O)c1=O)C(=O)N1C(C2)O[C@H]2CCC[C@@H]1C2 (stereo partly drawn) [Compound 7, (2S,6R)-N-(2,4-difluorobenzyl)-9-hydroxy-8,10-dioxo-3,4,5,6,8,10,14,14a-octahydro-2H-2,6-methanopyrido[1′,2′:4,5]pyrazino[2,1-b][1,3]oxazocine-11-carboxamide]	–	6	15600	MRT [4]: 2.3 h; clearance [4]: 8.5 mL/min/kg; Vd [4]: 1.2 L/kg
O=C(NCc1c(F)cc(F)cc1F)c1cn2c(c(O)c1=O)C(=O)N1[C@@H]3C[C@@H](C[C@H]3F)[C@@H]1C2 [Compound 82, (1S,3R,4R,12aR)-3-fluoro-7-hydroxy-6,8-dioxo-N-(2,4,6-trifluorobenzyl)-1,2,3,4,6,8,12,12a-octahydro-1,4-methanodipyrido[1,2-a:1′,2′-d]pyrazine-9-carboxamide]	10	1	30400	–
O=C(NCc1ccc(F)cc1F)c1cn2c(c(O)c1=O)C(=O)N1[C@H]3CC[C@H](CC3)[C@H]1C2 [Compound 100, (1R,4R,12aS)-N-(2,4-difluorobenzyl)-7-hydroxy-6,8-dioxo-1,2,3,4,6,8,12,12a-octahydro-1,4-ethanodipyrido[1,2-a:1′,2′-d]pyrazine-9-carboxamide]	–	–	–	IC50 ([1]; OCT2 mediated uptake of 14C-TEA (20 μM), MDCKII cells, read-out: IC50): 0.45 µM; Emax at 24 h, 15 µM [2, 5]: 45%; CC50 at 5 days ([3]; MT-4 cells, mock-infected, CC50 nM in MT-4, MT-4 cells, 5 days incubation): 11600 nM
C[C@H](NC(=O)c1cn2c(c(O)c1=O)C(=O)N1[C@@H]3CC[C@@H](C3)O[C@H]1C2)c1ccc(F)cc1F [Compound 13, (2S,5R,13aS)-N—((S)-1-(2,4-difluorophenyl)ethyl)-8-hydroxy-7,9-dioxo-2,3,4,5,7,9,13,13a-octahydro-2,5-methanopyrido[1′,2′:4,5]pyrazino[2,1-b][1,3]oxazepine-10-carboxamide]	0.61	–	12700	–
CC1CC2CC1OC1Cn3cc(C(=O)NCc4ccc(F)cc4F)c(=O)c(O)c3C(=O)N21 (single isomer, unassigned) [Compound 40]	0.204	–	9560	Emax at 24 h, 15 µM [2, 5]: 0%
C[C@H]1C[C@@H]2C[C@H]1O[C@H]1Cn3cc(C(=O)NCc4ccc(F)cc4F)c(=O)c(O)c3C(=O)N21 [Compound 39, (2R,3S,5R,3aS)-N-(2,4-difluorobenzyl)-8-hydroxy-3-methyl-7,9-dioxo-2,3,4,5,7,9,13,13a-octahydro-2,5-methanopyrido[1′,2′:4,5]pyrazino[2,1-b][1,3]oxazepine-10-carboxamide]	0.358	–	12200	Emax at 24 h, 15 µM [2, 5]: 6%
C[C@@H](NC(=O)c1cn2c(c(O)c1=O)C(=O)N1[C@@H]3CC[C@@H](C3)O[C@H]1C2)c1ccc(F)cc1F [Compound 11, (2S,5R,13aS)-N—((R)-1-(2,4-difluorophenyl)ethyl)-8-hydroxy-7,9-dioxo-2,3,4,5,7,9,13,13a-octahydro-2,5-methanopyrido[1′,2′:4,5]pyrazino[2,1-b][1,3]oxazepine-10-carboxamide]	10	–	10300	–
O=C(NCc1ccc(F)cc1F)c1cn2c(c(O)c1=O)C(=O)N1C(C2)O[C@@H]2CCC[C@H]1C2 (stereo partly drawn) [Compound 8, (2R,6S)-N-(2,4-difluorobenzyl)-9-hydroxy-8,10-dioxo-3,4,5,6,8,10,14,14a-octahydro-2H-2,6-methanopyrido[1′,2′:4,5]pyrazino[2,1-b][1,3]oxazocine-11-carboxamide]	–	7	13900	MRT [4]: 1.8 h; clearance [4]: 8.3 mL/min/kg; Vd [4]: 0.87 L/kg
O=C(NC1(c2ccc(F)cc2F)CC1)c1cn2c(c(O)c1=O)C(=O)N1C(C2)O[C@@H]2CCC[C@H]1C2 (stereo partly drawn) [Compound 29, (2R,6S)-N-(1-(2,4-difluorophenyl)cyclopropyl)-9-hydroxy-8,10-dioxo-3,4,5,6,8,10,14,14a-octahydro-2H-2,6-methanopyrido[1′,2′:4,5]pyrazino[2,1-b][1,3]oxazocine-11-carboxamide]	–	3	9450	–
O=C(NCc1c(Cl)ccc(Cl)c1F)c1cn2c(c(O)c1=O)C(=O)N1[C@H]3CC[C@H](C3)[C@@H]1C2 [Compound 71, (1R,4S,12aR)-N-(3,6-dichloro-2-fluorobenzyl)-7-hydroxy-6,8-dioxo-1,2,3,4,6,8, 12,12a-octahydro-1,4-methanodipyrido[1,2-a:1′,2′-d]pyrazine-9-carboxamide]	–	3	4660	–
O=C(NCc1c(F)cccc1F)c1cn2c(c(O)c1=O)C(=O)N1[C@@H]3CC[C@@H](C3)O[C@H]1C2 [Compound 46, (13aS)-N-(2,6-difluorobenzyl)-8-hydroxy-7,9-dioxo-2,3,4,5,7,9,13,13a-octahydro-2,5-methanopyrido[1′,2′:4,5]pyrazino[2,1-b][1,3]oxazepine-10-carboxamide]	–	34	19300	–
O=C(NCc1ccc(F)cc1F)c1cn2c(c(O)c1=O)C(=O)N1C(C2)[N@@]2CC[C@@H]1C2 (stereo partly drawn) [Compound 4, (1S,4R)-N-(2,4-difluorobenzyl)-7-hydroxy-6,8-dioxo-3,4,6,8,12,12a-hexahydro-2H-1,4-methanopyrido[1′,2′:4,5]pyrazino[1,2-a]pyrimidine-9-carboxamide]	–	3	45800	–
C[C@@H]1C[C@H]2C[C@@H]1[C@@H]1Cn3cc(C(=O)NCc4c(F)cc(F)cc4F)c(=O)c(O)c3C(=O)N21 [Compound 84, (1S,2R,4S,12aR)-7-hydroxy-2-methyl-6,8-dioxo-N-(2,4,6-trifluorobenzyl)-1,2,3,4,6,8,12,12a-octahydro-1,4-methanodipyrido[1,2-a:1′,2′-d]pyrazine-9-carboxamide]	–	21	9730	–
O=C(NCc1c(F)cc(F)cc1Cl)c1cn2c(c(O)c1=O)C(=O)N1[C@H]3CC[C@H](C3)[C@@H]1C2 [Compound 93, (1R,4S,12aR)-N-(2-chloro-4,6-difluorobenzyl)-7-hydroxy-6,8-dioxo-1,2,3,4,6,8,12,12a-octahydro-1,4-methanodipyrido[1,2-a:1′,2′-d]pyrazine-9-carboxamide]	–	9	6160	–
